The values that follow are results of earlier work, collected in patent EP0743854B1, “ANTI-TUMOUR MEDICAL P[…] THE BASIS OF C[…] THE METHOD OF ITS PRODUCTION” (PLIVA, pharmaceutical industry incorporated, priority 1994, dated 1995).

The conditions of this data set: lyophylized injection dissolved in water and other aqueous solutions (sodium chloride, glucose, dextrose).

`N.N.O=C([O-])C1(C(=O)[O-])CCC1.[Pt+2]` [carboplatin, cis-diammine-1,1-cyclobutanedicarboxylate platinum (II)]: the stability of solution result was “stable and therefore therapeutically useful for only few hours, at most few days under lower temperature”.
